Experimental data: US20260184675A1, “CHIRAL ISOMERIC SULFITE COMPOUND AND APPLICATION THEREOF” (Chengdu Hanova BioSciences Co., Ltd, priority 2024, published 2026)

Tests used:
Assay type in all cases: in vivo
[1] = test system: pest eggs of Tetranychus cinnabarinus; assay: Effect on hatching of pest eggs of Tetranychus cinnabarinus, leaf disc method; conditions: for Hatching rate (%): 7 days after insecticide delivery; for inhibitory effect on the hatching of pest eggs of Tetranychus cinnabarinus (in words): 1 ppm
In short: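 Adult female mites laid eggs on 2.0 cm Vicia faba leaf discs for up to 36 h; discs with counted eggs were dipped 10 s in compound solution or water, then kept moist. Hatched eggs were counted 7 days after treatment and control effect was calculated by formula.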

[2] = test system: eggs of Thrips; assay: Effect on hatching of eggs of Thrips, leaf disc method; conditions: 100 ppm; for Hatching rate (%): 5 days after insecticide delivery
In short: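 Thrip egg hatching was tested by the leaf disc method on Vicia faba discs 2.0 cm across, placed over wetted filter paper. Egg numbers on each disc were counted under a microscope before treatment. Discs were then dipped for 10 seconds in clean water or a compound solution at 100 ppm. They were kept moist under normal conditions, and hatching was surveyed five days after insecticide delivery.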

[3] = test system: eggs of Tetranychus urticae; assay: Effect on hatching of eggs of Tetranychus urticae, leaf disc method; conditions: 5 ppm; for Hatching rate (%): 5 days after insecticide delivery
In short: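 Twenty adult female Tetranychus urticae mites were placed on 2.0 cm Vicia faba leaf discs over wetted filter paper in lidded dishes kept moist, and removed within 36 hours. Eggs on each disc were counted under a microscope. The egg-bearing discs were dipped for 10 seconds in a compound solution at 5 ppm or in clear water, then kept moist, and hatching was checked five days after treatment.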

[4] = Replicate 1, listed as 19′-(S, R)
[5] = Replicate 2, listed as 19′-(S, R)
[6] = Replicate 3, listed as 19′-(S, R)
[7] = Replicate 1, listed as 19′-(S, S)
[8] = Replicate 2, listed as 19′-(S, S)
[9] = Replicate 3, listed as 19′-(S, S)

Compound | Hatching rate (%) ([1]; 0.25 mg/L, Replicate 1) | Hatching rate (%) ([1]; 0.25 mg/L, Replicate 2) | Number of hatched larvae 7 days after insecticide delivery ([1]; 0.25 mg/L, Replicate 1) | Number of hatched larvae 7 days after insecticide delivery ([1]; 0.25 mg/L, Replicate 2) | Hatching rate (%) ([1]; 0.5 mg/L, Replicate 1) | Hatching rate (%) ([1]; 0.5 mg/L, Replicate 2) | Number of hatched larvae 7 days after insecticide delivery ([1]; 0.5 mg/L, Replicate 1) | Number of hatched larvae 7 days after insecticide delivery ([1]; 0.5 mg/L, Replicate 2) | Hatching rate (%) ([1]; 1 mg/L, Replicate 1) | Hatching rate (%) ([1]; 1 mg/L, Replicate 2) | Number of hatched larvae 7 days after insecticide delivery ([1]; 1 mg/L, Replicate 1) | Number of hatched larvae 7 days after insecticide delivery ([1]; 1 mg/L, Replicate 2) | inhibitory effect on the hatching of pest eggs of Tetranychus cinnabarinus (in words) [1] | inhibitory activity on the hatching of eggs of Thrips (in words) [2] | inhibitory activity on the hatching of eggs of Tetranychus urticae (in words) [3] | Hatching rate (%) ([2]; Replicate 1) | Hatching rate (%) ([2]; Replicate 2) | Hatching rate (%) ([2]; Replicate 3) | Number of hatched larvae 5 days after insecticide delivery ([2]; Replicate 1) | Number of hatched larvae 5 days after insecticide delivery ([2]; Replicate 2) | also measured
CC[C@@H](COS(=O)OCCF)Oc1ccc(Cl)cc1Cl (stereo partly drawn) [19′-(S,R)] | 68.49 | 69.23 | 23 | 20 | 35.09 | 32.79 | 37 | 41 | 0.00 | 1.85 | 68 | 53 |  |  |  |  |  |  |  |  | Hatching rate (%) [2, 4]: 9.40%; Hatching rate (%) [2, 5]: 10.32%; Hatching rate (%) [2, 6]: 9.52%; Number of hatched larvae 5 days after insecticide delivery [2, 4]: 11; Number of hatched larvae 5 days after insecticide delivery [2, 5]: 13; Number of hatched larvae 5 days after insecticide delivery [2, 6]: 8; Hatching rate (%) [3, 4]: 10.81%; Hatching rate (%) [3, 5]: 11.49%; Number of hatched larvae 5 days after insecticide delivery [3, 4]: 12; Number of hatched larvae 5 days after insecticide delivery [3, 5]: 10
CC[C@@H](COS(=O)OCCF)Oc1ccc(Cl)cc1Cl (stereo partly drawn) [19′-(S,S)] | 40.82 | 39.73 | 29 | 44 | 5.71 | 3.57 | 66 | 54 | 0.00 | 0.00 | 56 | 49 | excellent inhibitory effects | strong inhibitory activities | strong inhibitory activities |  |  |  |  |  | Hatching rate (%) [2, 7]: 0.00%; Hatching rate (%) [2, 8]: 0.00%; Hatching rate (%) [2, 9]: 0.00%; Number of hatched larvae 5 days after insecticide delivery [2, 7]: 0; Number of hatched larvae 5 days after insecticide delivery [2, 8]: 0; Number of hatched larvae 5 days after insecticide delivery [2, 9]: 0; Hatching rate (%) [3, 7]: 0.00%; Hatching rate (%) [3, 8]: 0.00%; Number of hatched larvae 5 days after insecticide delivery [3, 7]: 0; Number of hatched larvae 5 days after insecticide delivery [3, 8]: 0
CC(COS(=O)OCCF)Oc1ccc(Cl)cc1Cl (stereo not shown) [Compound 1] | 72.22 | 67.92 | 20 | 17 | 32.58 | 38.30 | 42 | 29 | 0.00 | 1.64 | 53 | 60 | excellent inhibitory effects | strong inhibitory activities | strong inhibitory activities | 0.00 | 1.57 | 0.00 | 0 | 2 | Number of hatched larvae 5 days after insecticide delivery ([2]; Replicate 3): 0; Hatching rate (%) ([3]; Replicate 1): 0.94%; Hatching rate (%) ([3]; Replicate 2): 1.30%; Number of hatched larvae 5 days after insecticide delivery ([3]; Replicate 1): 1; Number of hatched larvae 5 days after insecticide delivery ([3]; Replicate 2): 1
CC(COc1ccc(Cl)cc1Cl)OS(=O)OCCF (stereo not shown) [Compound 1′] | 69.81 | 70.83 | 16 | 21 | 36.24 | 31.11 | 42 | 31 | 0.00 | 1.69 | 47 | 58 | excellent inhibitory effects | strong inhibitory activities | strong inhibitory activities | 0.00 | 0.00 | 0.97 | 0 | 0 | Number of hatched larvae 5 days after insecticide delivery ([2]; Replicate 3): 1; Hatching rate (%) ([3]; Replicate 1): 0.00%; Hatching rate (%) ([3]; Replicate 2): 1.98%; Number of hatched larvae 5 days after insecticide delivery ([3]; Replicate 1): 0; Number of hatched larvae 5 days after insecticide delivery ([3]; Replicate 2): 2
CC(C)(COc1ccc(Cl)cc1Cl)OS(=O)OCCF (stereo not shown) [Compound 10] |  |  |  |  |  |  |  |  |  |  |  |  | excellent inhibitory effects | strong inhibitory activities | strong inhibitory activities | 0.99 | 0.00 | 0.00 | 1 | 0 | Number of hatched larvae 5 days after insecticide delivery ([2]; Replicate 3): 0; Hatching rate (%) ([3]; Replicate 1): 1.94%; Hatching rate (%) ([3]; Replicate 2): 1.35%; Number of hatched larvae 5 days after insecticide delivery ([3]; Replicate 1): 2; Number of hatched larvae 5 days after insecticide delivery ([3]; Replicate 2): 1
CC(C)(COS(=O)OCCF)Oc1ccc(Cl)cc1Cl (stereo not shown) [Compound 10′] |  |  |  |  |  |  | 47 |  |  |  |  |  | excellent inhibitory effects | strong inhibitory activities | strong inhibitory activities | 0.00 | 1.55 | 0.00 | 0 | 2 | Number of hatched larvae 5 days after insecticide delivery ([2]; Replicate 3): 0; Hatching rate (%) ([3]; Replicate 1): 1.18%; Hatching rate (%) ([3]; Replicate 2): 1.10%; Number of hatched larvae 5 days after insecticide delivery ([3]; Replicate 1): 1; Number of hatched larvae 5 days after insecticide delivery ([3]; Replicate 2): 1
